Experiments:
[1] = cited from earlier work
skin = experiment: Skin testing for the cause of the allergic reactions; format: in vivo, human; conditions: skin testing in the same volunteer
Source text: When the use of the cream containing these ingredients was discontinued, the allergic lesions cleared completely without scarring.

[2] = oral, human; cited from earlier work

In the case of tristeryl glycerol, the solubility in alcohol ([1]; alcohol) is given as “very slightly soluble” and the solubility in water ([1]; water) is given as “insoluble”.
In the case of `CCOC(=O)CC(O)C(=O)OCC` (stereo not shown) [diethyl malate], the “ingredient responsible for the allergic reactions” value (skin) is reported as “allergic reactions were due to the diethyl malate”.
For vitamin E, the “dose above which toxicity is evident” value [2] is listed as “above 1 gm/day”.

From US8435547B2, “Cream for stimulating mitochondrial activity in the skin” (priority 2006, dated 2013)
